Measured values as given in publication PMC5570288, “Hot-spot identification on a broad class of proteins and RNA suggest unifying principles of molecular recognition” (PLoS ONE, 2017).

Biological target: T1, RecA (Escherichia coli, UniProt P0A7G6)
T1 construct: assay 'as previously described'; homo-oligomer
Experiment: coupled ATPase assay, ADP to H2O2, amplex red / resorufin fluorescence
Assay type: biochemical

T1 sequence (P0A7G6 2-353): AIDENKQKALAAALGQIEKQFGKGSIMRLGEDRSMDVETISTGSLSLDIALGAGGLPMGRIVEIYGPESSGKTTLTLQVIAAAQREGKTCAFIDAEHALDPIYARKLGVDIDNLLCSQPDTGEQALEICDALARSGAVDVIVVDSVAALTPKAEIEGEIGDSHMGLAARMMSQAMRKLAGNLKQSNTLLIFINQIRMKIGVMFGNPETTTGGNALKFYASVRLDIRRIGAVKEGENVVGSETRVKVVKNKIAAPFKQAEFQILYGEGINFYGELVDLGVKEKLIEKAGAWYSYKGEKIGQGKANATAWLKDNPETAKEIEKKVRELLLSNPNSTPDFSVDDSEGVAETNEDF

## NCCc1cc(O)c(O)cc1O [6-hydroxydopamine]
  IC50: 23 µM
